# According to the supplement of paper PMC10307832:
# How the values were obtained:
# Assay in all cases: relative viability (nuclei count vs DMSO), 5 days (fraction); higher = more cells survive
# R406 + Tozasertib = compound: COc1cc(Nc2ncc(F)c(Nc3ccc4c(n3)NC(=O)C(C)(C)O4)n2)cc(OC)c1OC [R406] + Cc1cc(Nc2cc(N3CCN(C)CC3)nc(Sc3ccc(NC(=O)C4CC4)cc3)n2)n[nH]1 [Tozasertib] (partner 0.1 µM)
# Outline: (§1)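 Nuclei were stained with Hoechst during a one-step fixation (final 0.05% Triton X-100, 1% formaldehyde, 1 ug/ml Hoechst) carried out 5 days after dosing, then counted on 4× images. The cells, lung cancer lines in 1536-well plates, had been dosed by pin tool the day after seeding with one drug alone or a fixed anchor-drug dose plus five library-drug doses (not always all listed) in √10 steps. Relative viability is the nuclei count in treated wells divided by that in vehicle wells, and each value is the median of duplicate plates.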
# Daporinad + Linsitinib = compound: O=C(/C=C/c1cccnc1)NCCCCC1CCN(C(=O)c2ccccc2)CC1 [Daporinad] + C[C@]1(O)C[C@@H](c2nc(-c3ccc4ccc(-c5ccccc5)nc4c3)c3c(N)nccn32)C1 [Linsitinib] (partner 1 µM)
# Outline: as §1
# Daporinad + Navitoclax = compound: O=C(/C=C/c1cccnc1)NCCCCC1CCN(C(=O)c2ccccc2)CC1 [Daporinad] + CC1(C)CCC(c2ccc(Cl)cc2)=C(CN2CCN(c3ccc(C(=O)NS(=O)(=O)c4ccc(N[C@H](CCN5CCOCC5)CSc5ccccc5)c(S(=O)(=O)C(F)(F)F)c4)cc3)CC2)C1 [Navitoclax] (partner 0.5 µM)
# Outline: as §1
# Daporinad + Palbociclib = compound: O=C(/C=C/c1cccnc1)NCCCCC1CCN(C(=O)c2ccccc2)CC1 [Daporinad] + CC(=O)c1c(C)c2cnc(Nc3ccc(N4CCNCC4)cn3)nc2n(C2CCCC2)c1=O [Palbociclib] (partner 0.5 µM)
# Outline: as §1
Cell Line,relative viability (R406 + Tozasertib; first compound 0.08 µM),relative viability (R406 + Tozasertib; first compound 0.253 µM),relative viability (R406 + Tozasertib; first compound 0.8 µM),relative viability (R406 + Tozasertib; first compound 2.53 µM),relative viability (R406 + Tozasertib; first compound 8 µM),relative viability (Daporinad + Linsitinib; first compound 0.0005 µM),relative viability (Daporinad + Linsitinib; first compound 0.001581 µM),relative viability (Daporinad + Linsitinib; first compound 0.005 µM),relative viability (Daporinad + Linsitinib; first compound 0.01581 µM),relative viability (Daporinad + Navitoclax; first compound 0.0005 µM),relative viability (Daporinad + Navitoclax; first compound 0.001581 µM),relative viability (Daporinad + Navitoclax; first compound 0.005 µM),relative viability (Daporinad + Navitoclax; first compound 0.01581 µM),relative viability (Daporinad + Palbociclib; first compound 0.0005 µM),relative viability (Daporinad + Palbociclib; first compound 0.001581 µM),relative viability (Daporinad + Palbociclib; first compound 0.005 µM),relative viability (Daporinad + Palbociclib; first compound 0.01581 µM)
SW 1573,0.179,0.233,0.22,0.175,0.0962,0.889,0.848,0.747,0.551,0.897,0.991,0.755,0.457,0.387,0.398,0.348,0.307
NCI-H2009,0.816,0.848,0.716,0.627,0.311,1.25,1.21,1.2,0.735,1.17,1.2,1.22,0.812,0.204,0.253,0.252,0.0753
LOU-NH91,0.723,0.764,0.644,0.472,0.466,0.854,1.04,1.14,1.52,0.678,0.851,0.928,1.24,0.442,0.519,0.548,0.509
NCI-H2405,0.76,0.845,0.82,0.804,0.542,0.987,1.06,1.04,0.611,0.948,0.962,0.684,0.321,0.54,0.577,0.555,0.415
LCLC-97TM1,0.217,0.318,0.209,0.216,0.226,0.204,0.235,0.193,0.17,0.365,0.506,0.37,0.571,0.194,0.191,0.24,0.235
NCI-H647,0.261,0.327,0.26,0.21,0.173,1.06,1.07,1.24,0.983,1.03,1.27,1.25,1.14,0.251,0.429,0.414,0.363
NCI-H838,0.247,0.327,0.248,0.254,0.217,1.17,1.14,0.832,0.558,1.15,1.23,0.928,0.624,0.254,0.258,0.29,0.199
